≈ marks a conversion by molar mass, not a printed value. Read-outs that look alike come from different tables or passages of the source.
Experiments:
[1] = system: Aspergillus niger; assay: MIC, agar dilution method (Example XVI); assay type: cell-based
From the text: (§1) In a manner similar to that described in Example V, the effectiveness of certain food-grade microbecides are compared with mono-esters in an agar dilution method. The very favorable results may be noted from Table 19.

[2] = system: Bacillus subtilis; assay: MIC, agar dilution method (Example XVI); assay type: cell-based
From the text: as §1

[3] = system: Canadida albicans; assay: MIC, agar dilution method (Example XVI); assay type: cell-based
From the text: as §1

[4] = system: Escherichia coli; assay: MIC, agar dilution method (Example XVI); assay type: cell-based
From the text: as §1

[5] = system: Pseudomonas aeruginosa; assay: MIC, agar dilution method (Example XVI); assay type: cell-based
From the text: as §1

[6] = system: Staphylococcus aureus; assay: MIC, agar dilution method (Example XVI); assay type: cell-based
From the text: as §1

[7] = system: Group A Strep.; assay: MIC of potassium soaps of unsaturated fatty acids (Example III); assay type: cell-based, Group A β-hemolytic Streptococci; details: Table 10, Group A Strep.
[8] = system: gram-negative organisms; assay: Inhibition, broth dilution (Example I); assay type: cell-based
Description: (§2) In order to establish comparative bactericidal and fungicidal results with homologous fatty acids, a series of experiments was performed with thirty straight-chain fatty acids and derivatives thereof. Eight different gram-negative and twelve different gram-positive organisms, representing a very broad spectrum of organisms, were used in these experiments including the fungus Candida (a yeast). Additionally, fatty acids were chosen to show the effects of saturation versus unsaturation, in the fatty acid claim. Standard solutions of the fatty acids and their derivatives were prepared by first dissolving the weighed compounds in 1 to 2 ml of 95% ethanol and immediately pouring this solution into 200 ml of Tripticase Soy Broth. These lipid compounds which are insoluble in water and broth precipitated into very small crystals or droplets. The tubes containing the suspension were warmed to approximately 70° C and were then placed in an ultrasonic tank for further solubilization of the lipid derivatives.
(§3) Standard solutions (or suspensions) at 1,000 μg/ml were twofold serially diluted with additional broth to a concentration of 125 μg/ml. A 4-ml amount of each dilution was then quickly, and with constant agitation, dispensed into appropriately labeled screw-capped glass tubes (16 by 125 mm). The tubes were sterilized with steam at 15 psi for 15 minutes. […]

[9] = system: gram-positive organisms; assay: Inhibition, broth dilution (Example I); assay type: cell-based; details: read-out: Inhibitory concentration
Description: as §2, §3

[10] = system: Pneumococci; assay: MIC, broth dilution (Examples I/II); assay type: cell-based, pneumococcus (63001); details: Table 1, Pneumococci
Description: as §2
(§4) Standard solutions (or suspensions) at 1,000 μg/ml were twofold serially diluted with additional broth to a concentration of 125 μg/ml. A 4-ml amount of each dilution was then quickly, and with constant agitation, dispensed into appropriately labeled screw-capped glass tubes (16 by 125 mm). The tubes were sterilized with steam at 15 psi for 15 minutes. After sterilization, all tubes were cooled and incubated overnight at 35° C to insure sterility.
(§5) All compounds were compared on a molar (micromoles/milliliter) rather than on a mass basis. In the following lists of organisms used, those followed by a parenthetical number are registered with the American Type Culture Collection (ATCC); the remainder were isolates from Providence Hospital or Northland Laboratory.
(§6) One drop (0.04 ± 0.01 ml) of an 18-hr broth culture containing 10^7 and 10^9 organisms/ml was added to each dilution of the test compound, as well as to a tube of plain broth which served as the positive control. After inoculation, the contents of each tube were well mixed, and the tubes were incubated at 35° C in a 5% carbon dioxide + […] atmosphere.
(§7) The MIC is defined as the lowest concentration of compound at which no […] evidence of growth was observed when turbidity of the inoculated broth dilutions was compared with control tubes. […] Only a one-tube difference between the bactericidal and bacteriostatic concentrations was normally observed.
(§8) Standard solutions (1000 μg/ml) of three fatty acids and polyglycerol esters thereof were prepared as described in Example I. Also sucrose esters were prepared by transferring the weighed compounds (0.2 gm. dissolved in 1 ml absolute methanol) into 200 ml of sterile Trypticase Soy Broth (TSB). These standard solutions (1000 μg/ml) were twofold serially diluted with additional sterile broth to a concentration of 125 μg/ml. A 3.8 aliquot of each dilution was asceptically delivered into sterile screw-capped culture tubes. All tubes were incubated overnight at 36° C to insure sterility. The microorganisms used in this example were the same as those used in Example I.
(§9) The inoculum, 0.05 ml of an 13-24 hour TSB culture (approximately 10^9 organisms/ml) was asceptically delivered into all dilutions of the compounds, mixed well, and incubated at 36° C. A tube of inoculated broth without the compound served as a positive control and an uninoculated set of dilutions incubated along with the test dilutions, served as a negative control.
(§10) In those cases in which the test compound itself caused turbidity, an aliquot (0.015 ml) of the mixed broth was inoculated onto an agar plate and incubated at 36° C for examination, as described in Example I. The control procedure of Example I was also repeated. The lauric, capric, and oleic acids were used as internal controls and for comparison to Example I. The minimal inhibitory concentrations (μmole/ml) for the compounds studied are given in Tables 7 and 8.

[11] = system: Streptococcus Group A; assay: MIC, broth dilution (Examples I/II); assay type: cell-based, beta-hemolytic streptococci Group A
Description: as §2, §4, §5, §6, §7, §8, §9, §10

[12] = system: Streptococcus β-hemolytic Non-A; assay: MIC, broth dilution (Examples I/II); assay type: cell-based, beta-hemolytic streptococci non-group A
Description: as §2, §4, §5, §6, §7, §8, §9, §10

[13] = system: Corynebacteria; assay: MIC, broth dilution (Examples I/II); assay type: cell-based, Corynebacterium sp. (10700)
Description: as §2, §4, §5, §6, §7, §8, §9, §10

[14] = system: Nocardia asteroides; assay: MIC, broth dilution (Examples I/II); assay type: cell-based, Nocardia asteroids (3308); details: Table 1, Nocardia asteroides
Description: as §2, §4, §5, §6, §7, §8, §9, §10

[15] = system: Micrococci; assay: MIC, broth dilution (Examples I/II); assay type: cell-based, Micrococcus sp.
Description: as §2, §4, §5, §6, §7, §8, §9, §10

[16] = system: S. aureus; assay: MIC, broth dilution (Examples I/II); assay type: cell-based, Staphylococcus aureus; details: Table 1, S. aureus
Description: as §2, §4, §5
One drop (0.04 ± 0.01 ml) of an 18-hr broth culture containing 10^7 and 10^9 organisms/ml was added to each dilution of the test compound, as well as to a tube of plain broth which served as the positive control. […]

[17] = system: S. epidermidis; assay: MIC, broth dilution (Examples I/II); assay type: cell-based; details: Table 7, Staph epider.; > = no inhibition, max. tested
Description: as §2, §4, §5, §6, §7, §8, §9, §10

[18] = system: Streptococcus Group D; assay: MIC, broth dilution (Examples I/II); assay type: cell-based; details: Table 7, Strep. Grp. D; > = no inhibition, max. tested
Description: as §2, §4, §5, §6, §7, §8, §9, §10

[19] = system: Sarcina; assay: MIC, broth dilution (Examples I/II); assay type: cell-based, Sarcina lutea (9431); details: Table 7, Sarcina; > = no inhibition, max. tested
Description: as §2, §4, §5, §6, §7, §8, §9, §10

[20] = Aspergillus niger, Table 19, agar dilution, read-out: MIC
[21] = Bacillus subtilis, Table 19, agar dilution, read-out: MIC
[22] = Table 19, agar dilution, read-out: MIC
[23] = Escherichia coli, Table 19, agar dilution, read-out: MIC
[24] = Pseudomonas aeruginosa, Table 19, agar dilution, read-out: MIC
[25] = Staphylococcus aureus, Table 19, agar dilution, read-out: MIC

C/C=C/C=C/C(=O)O [Sorbic acid]
MIC [1, 20]: 1000 µg/mL (≈ 8.92 mM) | MIC [2, 21]: 1000 µg/mL (≈ 8.92 mM) | MIC [3, 22]: 1000 µg/mL (≈ 8.92 mM) | MIC [4, 23]: 1000 µg/mL (≈ 8.92 mM) | MIC [5, 24]: 2000 µg/mL (≈ 17.8 mM) | MIC [6, 25]: 1000 µg/mL (≈ 8.92 mM)

C[CH2][Hg][S]c1ccccc1C(=O)[O-].[Na+] [Thimerosal]
MIC ([1]; Table 19, agar dilution): 0.10 µg/mL | MIC ([2]; Table 19, agar dilution): 0.39 µg/mL | MIC ([3]; Table 19, agar dilution): 0.10 to 0.20 µg/mL | MIC ([4]; Table 19, agar dilution): 1.60 µg/mL | MIC ([5]; Table 19, agar dilution): 6.30 to 12.50 µg/mL | MIC ([6]; Table 19, agar dilution): 0.78 µg/mL

CCCCCC=CCCCCCC=CCCCC(=O)O [.increment.^5 12]
MIC [7]: 20 µM

CCCCCCCCCCCCOS(=O)(=O)[O-].[Na+] [sodium lauryl sulfate]
Inhibition in words [8]: non-inhibitory | MIC [9]: 3470 µM

CC/C=C\C/C=C\C/C=C\CCCCCCCC(=O)O [Linolenic]
MIC [10]: 179 µM (≈ 49.8 µg/mL) | MIC ([11]; Table 1, Streptococcus Group A): 350 µM (≈ 97.5 µg/mL) | MIC ([12]; Table 1, Streptococcus β-hemolytic Non-A): 350 µM (≈ 97.5 µg/mL) | MIC ([13]; Table 1, Corynebacteria): 179 µM (≈ 49.8 µg/mL) | MIC [14]: 488 µM (≈ 136 µg/mL) | MIC ([15]; Table 1, Micrococci): 488 µM (≈ 136 µg/mL) | MIC [16]: 1790 µM (≈ 498 µg/mL)

CCCCCC=CCCCC=CCCCCCC(=O)O [.increment.^7 12]
MIC [7]: 20 µM

CCCCCC/C=C\CCCCCCCC(=O)[O-].[Na+] [Palmitoleic acid sodium salt]
MIC ([1]; Aspergillus niger): > 1000 µg/mL | MIC ([2]; Bacillus subtilis): 500 µg/mL | MIC [3]: > 1000 µg/mL | MIC ([4]; Escherichia coli): > 1000 µg/mL | MIC ([5]; Pseudomonas aeruginosa): > 1000 µg/mL | MIC ([6]; Staphylococcus aureus): 15.6 µg/mL

CCCCCC=CCCCCC=CCCCCC(=O)O [.increment.^6 12]
MIC [7]: 10 µM

CCCCCCCC=CCCC=CCCCCC(=O)O [.increment.^6 10]
MIC [7]: 10 µM

Hexaglycerol monocaprate
MIC ([11]; Table 7, Strep. Grp. A): 190 µM | MIC ([12]; Table 7, Strep. β-hemo. Non-A): 790 µM | MIC ([13]; Table 7, Cornebacteria): 390 µM | MIC ([15]; Table 7, Micrococci): 790 µM | MIC [17]: > 1580 µM | MIC [18]: > 1580 µM | MIC [19]: > 1580 µM

COC(=O)c1ccc(O)cc1 [Methyl paraben]
MIC [1, 20]: 2500 µg/mL (≈ 16.4 mM) | MIC [2, 21]: 5000 µg/mL (≈ 32.9 mM) | MIC [3, 22]: 2500 µg/mL (≈ 16.4 mM) | MIC [4, 23]: 2500 µg/mL (≈ 16.4 mM) | MIC [5, 24]: 5000 µg/mL (≈ 32.9 mM) | MIC [6, 25]: 5000 µg/mL (≈ 32.9 mM)

Source: patent US4067997A, “Synergistic microbecidal composition and method” (priority 1976, dated 1978)
